Results taken from patent EP0000322A1, “Compounds having an anti-depressive or tranquilizing activity, pharmaceutical compositions containing them, and processes and intermediates for their preparation” (priority 1977, dated 1979).
Where a name gives a salt, the structure may show the parent alone. Read-outs that look alike come from different tables or passages of the source.

What was measured:
[1] = system: neuronal uptake of 5-hydroxytryptamine and noradrenaline; experiment: Overall assessment of the uptake tests (selectivity NA versus 5-HT); set-up: species or system mouse; conditions: summary of the results of Table I
[2] = system: neuronal uptake of noradrenaline; experiment: Inhibition of the uptake of 3H-NA in brain slices after in vivo (i.p.) administration; set-up: species or system mice; conditions: for ED50: Mus musculus, ip, 0.5 h; for Inhibition of the uptake in vivo i.p. ED50 NA: 30 min
Procedure: (§1) The test method described in Europ. J. Pharmacol. 17, 107, 1972. This method involves the measurement of the decrease in the uptake of ^14C-5-hydroxytryptamine (^14C-5-HT) and ^3H- -noradrenaline (^3H-NA) in brain slices from mice after in vivo and in vitro administration of the test substance.
(§2) The test substances were administered intraperitoneally half an hour before the animals were killed. The midbrain was taken out, sliced and incubated in a mixture consisting of 0.2 nmole of ^14C-5-HT, 0.2 nmole of ^3H-NA and 11 µmole of glucose in 2 ml of Krebs Henseleit-buffer, pH 7.4 per 100 mg of brain slices. The incubation time was 5 minutes with 5 minutes of preincubation before the labelled amines were added. The slices were dissolved in Soluene and the amounts of radioactive amines taken u^p were determined by liquid scintillation. The doses producing 50 per cent decrease of the active uptake (ED50) of ^14C-5-HT and ^3H-NA were determined graphically from dose response curves. Active uptake is defined as that part of the radioactive uptake which is inhibited by a high concentration of cocaine.

[3] = system: neuronal uptake of 5-hydroxytryptamine; experiment: Inhibition of the uptake of 14C-5-HT in brain slices after in vivo (i.p.) administration; set-up: species or system mice; conditions: for ED50: Mus musculus, ip, 0.5 h; for Inhibition of the uptake in vivo i.p. ED50 5-HT: 30 min
Procedure: as §1, §2

[4] = target: neuronal uptake of noradrenaline (Mus musculus, UniProt O55192); experiment: Inhibition of the uptake of 3H-NA in mouse midbrain slices, in vitro administration; type: cell-based; conditions: slices from mouse brain (midbrain), 5 min preincubation with compound
Chain of neuronal uptake of noradrenaline (Mus musculus, UniProt O55192) (O55192 whole entry): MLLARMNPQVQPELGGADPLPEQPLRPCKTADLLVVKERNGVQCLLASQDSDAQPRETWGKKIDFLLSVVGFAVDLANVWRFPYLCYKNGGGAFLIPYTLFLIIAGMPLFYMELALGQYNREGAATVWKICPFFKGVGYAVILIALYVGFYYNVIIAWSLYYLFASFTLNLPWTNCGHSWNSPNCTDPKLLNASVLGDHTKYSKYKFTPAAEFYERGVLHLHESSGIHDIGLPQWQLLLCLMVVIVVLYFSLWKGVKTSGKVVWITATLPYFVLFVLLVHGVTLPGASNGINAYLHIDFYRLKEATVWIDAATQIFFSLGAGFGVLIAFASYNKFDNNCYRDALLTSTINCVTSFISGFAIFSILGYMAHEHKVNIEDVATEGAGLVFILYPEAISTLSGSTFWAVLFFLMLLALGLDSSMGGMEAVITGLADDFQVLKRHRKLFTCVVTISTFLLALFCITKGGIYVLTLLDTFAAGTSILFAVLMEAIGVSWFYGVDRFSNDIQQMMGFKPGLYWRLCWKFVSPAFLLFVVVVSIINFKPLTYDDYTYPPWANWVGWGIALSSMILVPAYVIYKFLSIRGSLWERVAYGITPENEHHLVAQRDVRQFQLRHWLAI
Procedure: as §1
as §2, with “Active uptake is defined as that part of the radioactive uptake which is inhibited by a high concentration of cocaine.” left out
(§3) In the vitro administration method slices of mouse midbrain were preincubated for 5 minutes with solution of the compound to be tested and then incubated as described above. The concentration producing 50 per cent inhibition of the active uptake IC50 of ^14C-5-HT and 3-H-NA was determined graphically from dose response curves.

[5] = target: neuronal uptake of 5-hydroxytryptamine (Mus musculus, UniProt Q60857); experiment: Inhibition of the uptake of 14C-5-HT in mouse midbrain slices, in vitro administration; type: cell-based; conditions: slices from mouse brain (midbrain), 5 min preincubation with compound
Chain of neuronal uptake of 5-hydroxytryptamine (Mus musculus, UniProt Q60857) (Q60857 whole entry): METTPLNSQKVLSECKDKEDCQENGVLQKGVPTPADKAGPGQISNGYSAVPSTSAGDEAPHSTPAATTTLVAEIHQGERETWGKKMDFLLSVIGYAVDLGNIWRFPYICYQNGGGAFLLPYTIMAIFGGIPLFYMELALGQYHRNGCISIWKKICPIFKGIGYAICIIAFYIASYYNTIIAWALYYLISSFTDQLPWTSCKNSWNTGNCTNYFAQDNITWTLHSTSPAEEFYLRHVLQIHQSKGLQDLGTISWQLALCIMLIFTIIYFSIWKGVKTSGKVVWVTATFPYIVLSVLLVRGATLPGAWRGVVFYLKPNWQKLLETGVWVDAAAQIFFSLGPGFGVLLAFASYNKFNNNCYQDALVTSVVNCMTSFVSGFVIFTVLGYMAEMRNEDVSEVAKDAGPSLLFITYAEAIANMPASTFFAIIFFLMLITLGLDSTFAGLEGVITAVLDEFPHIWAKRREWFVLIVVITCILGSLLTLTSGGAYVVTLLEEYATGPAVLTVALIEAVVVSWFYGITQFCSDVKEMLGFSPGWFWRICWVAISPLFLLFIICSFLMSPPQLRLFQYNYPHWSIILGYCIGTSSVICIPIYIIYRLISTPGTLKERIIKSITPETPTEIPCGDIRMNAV
Procedure: as §1
as §2, with “Active uptake is defined as that part of the radioactive uptake which is inhibited by a high concentration of cocaine.” left out
as §3

[6] = i.p. half an hour before the animals were killed, midbrain slices, read-out: Inhibition of the uptake in vivo i.p. ED50 NA
[7] = i.p. half an hour before the animals were killed, midbrain slices, read-out: Inhibition of the uptake in vivo i.p. ED50 5-HT
[8] = i.p. half an hour before the animals were killed, midbrain slices
[9] = i.p. half an hour before the animals were killed, midbrain slices, hydrochloride
[10] = read-out: Inhibition of the uptake in vivo i.p. ED50 NA, i.p. half an hour before the animals were killed, midbrain slices
[11] = read-out: Inhibition of the uptake in vivo i.p. ED50 5-HT, i.p. half an hour before the animals were killed, midbrain slices

For `COc1ccc(C(CC(C)N)c2ccccc2)cc1` (single isomer, unassigned) [CPK 160], the “activity on uptake of noradrenaline and 5-hydroxytryptamine (assessment in words)” value (“activity on uptake” for short) [1] was “pronounced non-selective activity”.

`CC(N)CC(c1ccccc1)c1ccc(F)cc1` (single isomer, unassigned) [CPK 163, (α)-3-(4-fluorophenyl)-1-methyl-3-phenylpropylamine oxalate] showed an ED50 [2, 6] of 32 µmol/kg and an ED50 [3, 7] of 32 µmol/kg.

In the case of `CC(N)CC(c1ccccc1)c1ccc(Br)cc1` (single isomer, unassigned) [CPK 165, (α)-3-(4-bromophenyl)-1-methyl-3-phenylaropylamine maleate], the “Inhibition of the uptake in vivo i.p. ED50 NA” value [2, 8] is reported as 62 µmol/kg and the “Inhibition of the uptake in vivo i.p. ED50 5-HT” value [3, 8] is reported as 61 µmol/kg.

With `CC(N)CC(c1ccccc1)c1ccc(F)cc1` (single isomer, unassigned) [CPK 170, (β)-3-(4-fluorophenyl)-1--methyl-3-phenylpropylamine hydrochloride] the “Inhibition of the uptake in vivo i.p. ED50 NA” value [2, 9] was 34 µmol/kg, the “Inhibition of the uptake in vivo i.p. ED50 5-HT” value [3, 9] was 37 µmol/kg and the “activity on uptake” value [1] was “pronounced non-selective activity”.

`CC(N)CC(c1ccccc1)c1ccc(Br)cc1` (single isomer, unassigned) [CPK 171, (β)-3-(4-bromophenyl)-1-methyl-3-phenylpropylamine] was tested, and the “Inhibition of the uptake in vivo i.p. ED50 NA” value [2, 8] was 29 µmol/kg, the “Inhibition of the uptake in vivo i.p. ED50 5-HT” value [3, 8] was 29 µmol/kg and the “activity on uptake” value [1] was “pronounced non-selective activity”.

Compound `COc1ccc(C(CC(C)N)c2ccccc2)cc1` (single isomer, unassigned) [CPK 180, (α)-3-(4-methoxyphenyl)-1-methyl-3-phenylpropylamine] has an ED50 [2, 10] of 78 µmol/kg and an ED50 [3, 11] of 54 µmol/kg.

For `CC(N)CC(c1ccccc1)c1cccc(Br)c1` (single isomer, unassigned) [CPK 184, (β)-3-(3-bromophenyl)-1-methyl-3-phenylpropylamine], the ED50 [2, 6] was 7.7 µmol/kg, the ED50 [3, 7] was 9.9 µmol/kg and the “activity on uptake” value [1] was “pronounced non-selective activity”.

For `CC(N)CC(c1ccccc1)c1ccccc1Br` (single isomer, unassigned) [CPK 185, (α)-3-(2-bromophenyl)-1-methyl-3-phenylpropylamine maleate], the “Inhibition of the uptake in vivo i.p. ED50 NA” value [2, 8] was 4.1 µmol/kg, the “Inhibition of the uptake in vivo i.p. ED50 5-HT” value [3, 8] was 5.7 µmol/kg and the “activity on uptake” value [1] was “pronounced selective activity on uptake of noradrenaline”.

`CC(N)CC(c1ccccc1)c1ccc(C(F)(F)F)cc1` (single isomer, unassigned) [CPK 195, (α)-1-methyl-3-(4-trifluoromethylphenyl)-3-phenylpropylamine maleate] showed an ED50 [2, 10] greater than 98 µmol/kg and an ED50 [3, 11] of 98 µmol/kg.

`CC(N)CC(c1ccccc1)c1ccccc1Br` (single isomer, unassigned) [CPK 197, (β)-3-(2-bromophenyl)-1-methyl-3--phenyl-propylamine maleate] was tested, and the “Inhibition of the uptake in vivo i.p. ED50 NA” value [2, 8] was 28 µmol/kg and the “Inhibition of the uptake in vivo i.p. ED50 5-HT” value [3, 8] was greater than 95 µmol/kg.

For `COc1ccc(C(CC(C)N)c2ccccc2)cc1` (single isomer, unassigned) [CPK 198, (β)-3-(4-methoxyphenyl)-1-methyl-3-phenylpropylamine], the “Inhibition of the uptake in vivo i.p. ED50 NA” value [2, 8] was 52 µmol/kg, the “Inhibition of the uptake in vivo i.p. ED50 5-HT” value [3, 8] was 33 µmol/kg and the “activity on uptake” value [1] was “pronounced selective activity on uptake of 5-hydroxytryptamine”.

For `CC(N)CC(c1ccccc1)c1ccc(C(F)(F)F)cc1` (single isomer, unassigned) [CPK 199, (β)-1-methyl-3-(4-trifluoromethylphenyl)-3-phenylpropylamine maleate], the “Inhibition of the uptake in vivo i.p. ED50 NA” value [2, 8] was greater than 98 µmol/kg and the “Inhibition of the uptake in vivo i.p. ED50 5-HT” value [3, 8] was greater than 98 µmol/kg.

With `CC(N)CC(c1ccccc1)c1ccccc1` (stereo not shown) [3,3-diphenyl-1-methylpropylamine fumarate, reference compound] the ED50 [2, 6] was 50 µmol/kg and the ED50 [3, 7] was 75 µmol/kg.

With `CC(N)CC(c1ccccc1)c1cccc(Br)c1` (stereo not shown) [CPK 155, 3-(3-bromophenyl)-1-methyl-3-phenylpropylamine] the ED50 [2, 6] was 49 µmol/kg and the ED50 [3, 7] was greater than 95 µmol/kg.

In the case of `CNC(C)CC(c1ccccc1)c1ccc(Br)cc1` (stereo not shown) [CPK 187, N, 1-dimethyl-3(4-bromophenyl)--3-phenylpropylamine], the ED50 [2, 6] is reported as greater than 98 µmol/kg and the ED50 [3, 7] is reported as 98 µmol/kg.

For `CC(N)/C=C(\c1ccccc1)c1ccc(Br)cc1` (stereo not shown) [CPK 204, (E)-3-amino-1-(4-bromophenyl)-1-phenylbutene oxalate], the ED50 [2, 6] was 48 µmol/kg and the ED50 [3, 7] was 40 µmol/kg.

With `CC(N)/C=C(\c1ccccc1)c1cccc(Br)c1` (stereo not shown) [CPK 215, (E)-3-amino-1-(3-bromophenyl)-1-phenylbutene] the ED50 [2, 6] was 24 µmol/kg and the ED50 [3, 7] was 96 µmol/kg.

`CC(N)/C=C(/c1ccccc1)c1cccc(Br)c1` (stereo not shown) [CPK 217, (Z)-3-amino-1-(3-bromophenyl)-1-phenylbutene] gave an ED50 [2, 6] of 35 µmol/kg and an ED50 [3, 7] of 118 µmol/kg.

Work on `CC(N)/C=C(/c1ccc(Br)cc1)c1cccnc1` (stereo not shown) [CPP 179] yielded an ED50 [2, 6] greater than 89 µmol/kg and an ED50 [3, 7] of 89 µmol/kg.

`CN(C)CCCN1c2ccccc2CCc2ccc(Cl)cc21` [Chloroimipramine, reference compound] was tested, and the IC50 [4] was 0.9 µM and the ED50 [2, 10] was 150 µmol/kg.

Work on `CC(N)C=C(c1ccc(Br)cc1)c1ccc(Br)cc1` (stereo not shown) [FLA 608, 3-amino-1,1-di(4-bromophenyl)-1--butene hydrochloride] yielded an ED50 [2, 6] of 57 µmol/kg and an ED50 [3, 7] of 62 µmol/kg.

With `COc1ccc(C(=CC(C)N)c2ccc(OC)cc2)cc1.O=C(O)/C=C/C(=O)O` (stereo not shown) [FLA 611, 3-amino-1,1-di(4-methoxyphenyl)--1-butene fumarate] the ED50 [2, 6] was 108 µmol/kg, the ED50 [3, 7] was 63 µmol/kg and the “activity on uptake” value [1] was “pronounced selective activity on uptake of 5-hydroxytryptamine”.

With `CC(N)C=C(c1ccc(F)cc1)c1ccc(F)cc1` (stereo not shown) [FLA 613, 3-amino-1,1-di-(4-fluorphenyl)-1-butene fumarate] the ED50 [2, 6] was 106 µmol/kg and the ED50 [3, 7] was 38 µmol/kg.

In the case of `COc1ccc(C(CC(C)N)c2ccc(OC)cc2)cc1` (stereo not shown) [FLA 614, 3,3-di-(4-methoxyphenyl)-1-methyl--propylamine fumarate], the ED50 [2, 6] is reported as 100 µmol/kg and the ED50 [3, 7] is reported as 25 µmol/kg.

For `CC(N)CC(c1ccc(F)cc1)c1ccc(F)cc1.Cl` (stereo not shown) [FLA 615, 3,3-di-(4-fluorophenyl)-1-methylpropylamine hydrochloride], the ED50 [2, 6] was 57 µmol/kg, the ED50 [3, 7] was 29 µmol/kg and the “activity on uptake” value [1] was “pronounced selective activity on uptake of 5-hydroxytryptamine”.

`Cc1cccc(C(=CC(C)N)c2cccc(C)c2)c1` (stereo not shown) [FLA 618, 3-amino-1,1-di-(3-methylphenyl)-1-butene hydrochloride] gave an ED50 [2, 6] of 56 µmol/kg and an ED50 [3, 7] of 93 µmol/kg.

With `Cc1cccc(C(CC(C)N)c2cccc(C)c2)c1` (stereo not shown) [FLA 619, 1,3', 3"-trimethyl-3,3-diphenyl-propylamine oxalate] the ED50 [2, 6] was 48 µmol/kg and the ED50 [3, 7] was 116 µmol/kg.

`CNCC=C(c1ccc(Br)cc1)c1cccnc1` [N-methyl-3-(4-bromophenyl)-3-(3-pyridyl)-allylamine E-isomer, N-methyl-3-(4-bromophenyl)-3-(3-pyridyl)-allylamine, reference compound] was tested, and the “Inhibition of the uptake in vivo i.p. ED50 NA” value [2, 8] was 25 µmol/kg.

For `CNCC=C(c1ccc(Br)cc1)c1cccnc1` [N-methyl-3-(4-bromophenyl)-3-(3-pyridyl)-allylamine Z-isomer, N-methyl-3-(4-bromophenyl)-3-(3-pyridyl)-allylamine, reference compound], the “Inhibition of the uptake in vivo i.p. ED50 NA” value [2, 8] was greater than 102 µmol/kg and the “Inhibition of the uptake in vivo i.p. ED50 5-HT” value [3, 8] was 19 µmol/kg.

“(Z)-3-amino-1-(4-bromophenyl)-1--phenylbutene maleate [CPK 150]” was tested, and the IC50 [4] was 2 µM, the IC50 [5] was 3 µM and the “Inhibition of the uptake in vivo i.p. ED50 NA” value [2, 8] was 96 µmol/kg. For the same compound, the “Inhibition of the uptake in vivo i.p. ED50 5-HT” value [3, 8] was greater than 96 µmol/kg.
